Values of other authors in patent US9084755B2, “Method for extracting and separating ginkgolides” (CHENGDU BAIYU TECHNOLOGY PHARMACY CO., LTD, priority 2012, dated 2015).

Target: platelet-activating factor PAF receptor (Homo sapiens, UniProt P25105)
Conditions: compared among ginkgolides

Chain of platelet-activating factor PAF receptor (P25105 whole entry): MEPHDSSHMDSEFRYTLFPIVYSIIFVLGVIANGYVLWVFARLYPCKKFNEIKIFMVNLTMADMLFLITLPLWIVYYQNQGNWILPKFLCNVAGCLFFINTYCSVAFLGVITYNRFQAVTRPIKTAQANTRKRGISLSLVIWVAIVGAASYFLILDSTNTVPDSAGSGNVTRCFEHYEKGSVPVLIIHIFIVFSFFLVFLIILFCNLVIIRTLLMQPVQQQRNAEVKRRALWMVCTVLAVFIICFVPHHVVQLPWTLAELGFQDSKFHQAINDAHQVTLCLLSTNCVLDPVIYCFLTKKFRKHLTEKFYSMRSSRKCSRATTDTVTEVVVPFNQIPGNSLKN

## C[C@@H]1C(=O)O[C@H]2[C@H](O)C34[C@H]5C[C@@H](C(C)(C)C)[C@]36[C@@H](OC(=O)[C@@H]6O)O[C@@]4(C(=O)O5)[C@@]12O (stereo partly shown) [ginkgolide B]
  antagonism to the PAF: strongest
